{
  "source": "patent US20120252054A1",
  "about": "“SYSTEM FOR TRANSFORMATION OF THE CHLOROPLAST GENOME OF SCENEDESMUS SP. AND DUNALIELLA SP” (priority 2009, published 2012)",
  "key": {"[1]": {"system": "S. dimorphus transformants containing the codA transgene", "test": "Plating on TAP agar containing 5-fluorocytosine, codA transformants", "assay_type": "cell-based, Scenedesmus dimorphus", "details": "1 mg/mL 5FC", "source_text": "In this example, a nucleic acid encoding cytosine deaminase gene (codA) from E. coli was introduced into S. dimorphus. Transforming DNA is shown graphically in FIG. 23. In this instance the DNA segment labeled “codA cr” is the codA encoding gene (SEQ ID NO: 31, codA), the segment labeled “psbD” is the promoter and 5′ UTR for the psbD gene from S. dimorphus, the segment labeled “D1 3′” is the 3′ UTR for the psbA gene from S. dimorphus, and the segment labeled “CAT” is the chloramphenicol acetyl transferase gene (CAT) from E. coli, which is regulated by the promoter and 5′ UTR sequence for the tufA gene from S. dimorphus and the 3′ UTR sequence for the rbcL gene from S. dimorphus. The transgene expression cassette and selection marker are targeted to the S. dimorphus chloroplast genome via the segments labeled “Homology A” and “Homology B” which are approximately 1000 bp fragments homologous to sequences of DNA adjacent to nucleotide 071,366 (Site 1; nucleotide locations according to the sequence available from NCBI for S. obliquus, NC—008101) on the 5′ and 3′ sides, respectively. All DNA segments were cloned into pUC19. All DNA manipulations carried out in the construction of this transforming DNA were essentially as described by Sambrook et al., Molecular Cloning: A Laboratory Manual (Cold Spring Harbor Laboratory Press 1989) and Cohen et al., Meth. Enzymol. 297, 192-208, 1998. […]"}, "[2]": {"system": "S. obliquus transformants containing the codA transgene", "test": "Plating on TAP agar containing 5-fluorocytosine, codA transformants of S. obliquus", "assay_type": "cell-based, Scenedesmus obliquus", "details": "1 mg/mL 5FC", "source_text": "In this example, a nucleic acid encoding cytosine deaminase gene (codA) from E. coli was introduced into S. obliquus. Transforming DNA is shown graphically in FIG. 23. In this instance the DNA segment labeled “codA cr” is the codA encoding gene (SEQ ID NO: 27, codA), the segment labeled “psbD” is the promoter and 5′ UTR for the psbD gene from S. dimorphus, the segment labeled “D1 3′” is the 3′ UTR for the psbA gene from […], and the segment labeled “CAT” is the chloramphenicol acetyl transferase gene (CAT) from E. coli, which is regulated by the promoter and 5′ UTR sequence for the tufA gene from S. dimorphus and the 3′ UTR sequence for the rbcL gene from S. dimorphus. The transgene expression cassette and selection marker are targeted to the S. obliquus chloroplast genome via the segments labeled “Homology A” and “Homology B” which are approximately 1000 bp fragments homologous to sequences of DNA adjacent to nucleotide 071,366 (Site 1; nucleotide locations according to the sequence available from NCBI for S. obliquus, NC—008101) on the 5′ and 3′ sides, respectively. All DNA segments were cloned into pUC19. All DNA manipulations carried out in the construction of this transforming DNA were essentially as described by Sambrook et al., Molecular Cloning: A Laboratory Manual (Cold Spring Harbor Laboratory Press 1989) and Cohen et al., Meth. Enzymol. 297, 192-208, 1998. […]"}, "[3]": {"system": "Wildtype S. dimorphus", "test": "Plating on TAP agar containing 5-fluorocytosine, wild type", "assay_type": "cell-based, Scenedesmus dimorphus", "details": "1 mg/mL 5FC", "description": "To determine if functional codA is produced by transformed algae cells, cells were grown in TAP media to log phase, pelleted and resuspended to 10^8 cells/mL and plated onto TAP agar medium containing 1 mg/mL 5-fluorocytosine (5FC).\nTo determine if functional codA is produced by transformed algae cells, cells were plated onto TAP agar medium containing 1 mg/mL 5-fluorocytosine (5FC)."}, "[4]": {"system": "wild type S. dimorphus", "test": "Growth in HSM with various concentrations of DCMU or atrazine, wild type", "assay_type": "cell-based, Scenedesmus dimorphus", "details": "constant light 50-100 uE with CO2 enrichment, 4 days"}, "[5]": {"system": "S. dimorphus DCMU transformants (CAT cassette)", "test": "Patching of DCMU-selected CAT-cassette transformants onto TAP agar with chloramphenicol", "assay_type": "cell-based, Scenedesmus dimorphus", "details": "TAP agar medium containing 25 μg/mL CAM", "source_text": "In order to determine if DCMU selection could result in incorporation of an expression cassette downstream of the psbA gene, A vector was constructed containing an expression cassette consisting of an endogenous promoter, a chloramphenicol acetyltransferase (CAT) gene, and an endogenous terminator cloned ˜500 bp downstream of the S264A/XbaI mutated psbA gene fragment from S. dimorphus and including the rpl20 gene. Transforming DNA is shown graphically in FIG. 4. In this instance the DNA segment labeled “CAT” is the chloramphenicol acetyl transferase gene from E. coli, the segment labeled “tufA” is the promoter and 5′ UTR sequence for the tufA gene from S. dimorphus, and the segment labeled “rbcL” is the 3′ UTR for the rbcL gene from S. dimorphus. The selection marker cassette is targeted to the S. dimorphus chloroplast genome via the segments labeled “Homology A2” and “Homology B2” which are 1000 bp fragments homologous to sequences of DNA adjacent to nucleotide 065,353 and include an S264A/XbaI mutated partial psbA coding sequence, its 3′UTR, and the rpl20 coding sequence. This vector targets integration of the selection marker cassette approximately 400 bp 3′ of the stop codon of the psbA gene.\nTransforming DNA was introduced into S. dimorphus via particle bombardment (as described in EXAMPLE 1) with DNA carried on 550 nm gold particles, @500 psi and a shooting distance of 4 cm. […]"}},
  "data": [
    {"compound": "Nc1nc(=O)[nH]cc1F", "note": "[5FC, 5-fluorocytosine]", "values": [
      {"measurement": "survival on TAP agar containing 5FC", "setting": "[1]", "result": "do not"},
      {"measurement": "survival on TAP agar containing 5FC", "setting": "[2]", "result": "did not"},
      {"measurement": "survival on TAP agar containing 5FC", "setting": "[3]", "result": "survived"}
    ]},
    {"compound": "CCNc1nc(Cl)nc(NC(C)C)n1", "note": "[Atrazine]", "values": [
      {"measurement": "concentration in which cells fail to grow", "setting": "[4]", "result": 0.5, "unit": "µM"}
    ]},
    {"compound": "O=C(N[C@H](CO)[C@H](O)c1ccc([N+](=O)[O-])cc1)C(Cl)Cl", "note": "[CAM, chloramphenicol]", "values": [
      {"measurement": "resistance of transformants to chloramphenicol", "setting": "[5]", "result": "resistant"}
    ]},
    {"compound": "CN(C)C(=O)Nc1ccc(Cl)c(Cl)c1", "note": "[DCMU, 3-(3,4-Dichlorophenyl)-1,1-dimethylurea]", "values": [
      {"measurement": "concentration in which cells fail to grow", "setting": "[4]", "result": 0.5, "unit": "µM"}
    ]}
  ]
}
